# Test results: patent publication US20140331363A1, “PLANTS WITH ALTERED GLUCURONOXYLAN METHYL TRANSFERASE ACTIVITY AND METHODS OF USE” (UNIVERSITY OF GEORGIA RESEARCH FOUNDATION, INC., priority 2011, published 2014)
# Experiments:
# GXMT1 [1] = biological target: T1, GXMT1 (Arabidopsis thaliana, UniProt Q9LQ32); assay: GXMT1 4-O-methyltransferase activity of metal-depleted enzyme, SAH formation by LC-ESI-MS; type: biochemical; conditions: for effect on GXMT1 enzyme activity: metal salts or EDTA at 1 mM, metal-depleted GXMT1
# T1 construct: made in house; host or cells: E. coli BL21-CodonPlus (DE3)-RIPL, pGEX-5X1 vector
# T1 sequence (Q9LQ32 44-297): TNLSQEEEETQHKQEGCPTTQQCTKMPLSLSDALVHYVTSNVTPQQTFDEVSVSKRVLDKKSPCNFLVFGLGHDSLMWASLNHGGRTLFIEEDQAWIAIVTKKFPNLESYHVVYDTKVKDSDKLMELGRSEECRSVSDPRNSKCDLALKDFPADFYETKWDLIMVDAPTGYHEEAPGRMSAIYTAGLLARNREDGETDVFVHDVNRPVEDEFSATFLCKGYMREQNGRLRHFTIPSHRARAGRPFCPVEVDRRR
# Description: The transfer of a methyl group from SAM to GlcA results in the formation of S-adenosyl homocysteine (SAH). The amounts of SAH formed were determined by LC-ESI-MS (Salyan et al., 2006, Anal Biochem 349:112-117). (B) The effect on GXMT activity of different divalent metals. Protein and buffer solutions were treated with Chelex-100 resin to remove divalent cations prior to initiating the methylation reaction. Metal salts or EDTA were used at a concentration of 1 mM. […] Reaction mixtures were allowed to equilibrate to the specified temperature for 30 min and then the methylation reaction was initiated by the addition of SAMe (15 mM).
# Determination of methyltransferase activity using LC-ESI-MS. Glucuronoxylan 4-O-methyltransferase activity was determined using a liquid chromatography-electrospray ionization/mass spectroscopy (LC-ESI-MS) method using selective reaction monitoring (SRM) that measures the formation of S-adenosylhomocysteine from SAM (S17). LC-ESI-MS analyses were performed on a LTQ-XL linear ion trap mass spectrometer (ThermoFisher, Waltham, Mass.) equipped with a Surveyor MS Pump Plus HPLC, a Surveyor Autosampler Plus. Chromatographic separation was as described (Salyan et al., 2006, Anal Biochem 349:112-117). S-adenosylhomocysteine (SAH) eluted at 3.2 min. Thus, the material eluting between 2.5 and 5 min was transferred to the mass spectrometer using an in-line divert/inject valve. The selected reaction monitoring transition used was 385.1>250.1 with a collision energy of 20%. The detection limit was 60.25 nM S-adenosylhomocysteine with a linear response up to 3 μM. […]
# GXMT1 [2] = biological target: T1, GXMT1; assay: GXMT1 methyltransferase activity monitored by 1H NMR (GlcA methylation of gxmt1-1 glucuronoxylan); type: biochemical
# Description: FIG. 12. […] After 48 hours the products formed were treated with endoxylanase and the resulting oligosaccharides were characterized by ^1H NMR spectroscopy. The extent of GlcA methylation was determined by integration of the GlcA (U) and 4-O-methyl GlcA (M) H1 signals (see FIG. 1B).
# Determination of Methyltransferase Activity using ^1H-NMR Spectroscopy and LC-ESI-MS. The temperature optimum for GXMT1 activity was between 19-25° C. (FIG. 10C). The transfer of methyl groups to O-4 of GlcA was established by ^1H NMR spectroscopy. Assays were performed at 23° C. in 50 mM potassium bicarbonate, pH 7.5, (250 μL) containing acceptor substrate equivalent to 2.27 mM available GlcA residues, recombinant GXMT1 (10 μM), CoCl2 (2 mM) and 1.5 mM S-adenosyl-L-methionine sulfate p-toluenesulfonate, unless otherwise indicated. The formation of SAH from SAM was determined using LC-ESI-MS (Salyan et al., 2006, Anal Biochem 349:112-117). […] Details of both assays are in Example 2.
# Monitoring methyltransferase activity by ^1H-NMR spectroscopy. […] The dry reaction products were dissolved in 0.25 mL D2O and analyzed by ^1H-NMR spectroscopy. Spectra were recorded before and after endoxylanase treatment, when polymeric xylan was used as a substrate.
structure (smiles),measurement,setting,value
[Cl-].[Cl-].[Co+2] [Co^2+],enhancement of GXMT1 activity,"GXMT1 [1]; metal salts at 1 mM, metal-depleted GXMT1 3.4 μM, 180 min, average","1,180%"
[Cu+2] [Cu^2+],effect on GXMT1 enzyme activity,GXMT1 [1],completely inhibited
O=C(O)CN(CCN(CC(=O)O)CC(=O)O)CC(=O)O [EDTA],effect on GXMT1 enzyme activity,GXMT1 [1],completely inhibited
"Nc1ncnc2c1ncn2[C@@H]1O[C@H](CSCC[C@H](N)C(=O)O)[C@@H](O)[C@H]1O [SAH, S-adenosyl-L-homocysteine]",reduction of O-methyl transferase activity,"GXMT1 [2]; 1.5 mM SAH with SAM, 10 μM GXMT1, 48 hours",over 50%
same,effect on in vitro GXMT1 activity,GXMT1 [2]; SAH added at the start of the reaction,inhibited
